Series [1] concerns human lung carcinoma cells (A549). As to the kind of experiment: Cytotoxicity, MTT assay, A549. It counts as cell-based. An outline of the steps: (§1)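 Cells in RPMI 1640 with 10% FBS were seeded at 1 × 10^4 cells/well for 24 h, then exposed for 24 h to compound at 0.01–50 µg/mL. MTT was added for 4 h at 37 °C, and formazan was dissolved in DMSO and read at 570 nm. IC50 came from triplicate viability relative to untreated controls.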
In general terms: Tetrazolium dyes change colour on reduction, which living cells bring about.

The nature of series [2]: Body weight of HepG2-bearing mice. In kind it is in vivo, Balb/c nude mice. Particulars: measured every 2 days during treatment. Here is the method:
The antitumor effect was investigated on the seven-week-old female Balb/c nude mice (n = 30) weighing 19–21 grams (Shanghai Laboratory Animal Center). Briefly, 0.2 mL HepG2 cells (1 × 10^7/mL) were inoculated subcutaneously into the alar left of each mouse. On the third day after the inoculation, the HepG2-bearing mice were randomly divided into five groups (n = 6/group) and administrated the according drug or solvent. […] The control group was administrated of saline as negative control. The body weight and tumor volumes calculation were recorded from the day of treatment, and the tumor volumes were calculated using the following equation: tumor volume = length × (width)^2 × π/6. Animal experiments were reviewed and approved by the Binzhou Medical University Experimental Animal Committee.

A further series relates to HepG2 cells. Nature of the series: Apoptosis assay, Annexin V-FITC/PI flow cytometry. It counts as cell-based, human. The settings on record: 5c treatment for 24 hours, 1.0, 2.0, 4.0 µM, early and late apoptosis. The protocol:
HepG2 cells were plated at a density of 1 × 10^5 cells/well in 24-well plates. […] One hundred microliters of such solution (1 × 10^5 cells) was mixed with 5 µL of Annexin V-FITC and 5µL of Propidium Iodide (BD Biosciences, San Jose, CA, USA) according to the manufacturer’s instruction. The mixed solution was gently vortexed and incubated in the dark at room temperature for 15 minutes. Four hundred microliters of 1X binding buffer were then added to each tube and cell apoptosis analysis was performed by flow cytometry (BD FACS Calibur) within 1 hour.
On the technique in general: Flow cytometry measures light scatter and fluorescence of single cells or particles in a stream.

For series [3], the system named is human cervical carcinoma cells (HeLa). As to the kind of experiment: Cytotoxicity, MTT assay, HeLa. In kind it is cell-based. In a few lines: as §1
For the next series, the system named is Bax. As to the kind of experiment: Western blot, Bax expression. It counts as cell-based, human. The settings on record: HepG2, 3 h, 1.0, 2.0, 4.0 µM, vs negative control. The protocol: The HepG2 cell lines were treated with different dose of by BAP 5c (1.0, 2.0, 4.0 µM, respectively) for 3 hours, then washed twice with PBS, and lysed in ice-cold modified RIPA buffer containing PMSF (RIPA:PMSF = 100:1; the ultimate density of PMSF is 1.0 mM). The lysates were kept for 30 minutes on the ice, and then centrifuged for 15 min at 12000 rpm/min at 4 °C and the supernatant was collected. The proteins were boiled at 95 °C at 5 min with loading buffer (the volume ratio of protein and the loading buffer is 4:1). Each 50 µg protein of cell lysates were separated by 10% SDS-PAGE gel electrophoresis. The proteins were then transferred onto polyvinylidene fluorides membrane. The membranes were probed with antibodies and visualised using an enhanced chemiluminescence (ECL) detection kit according to the manufacturer instruction.
A general note: In western blotting, separated proteins are transferred to a membrane and probed.

Series [4] concerns human normal heptical cell line (LO2). As to the kind of experiment: Cytotoxicity, MTT assay, non-malignant LO2. In kind it is cell-based. The settings on record: 24 hours, non-malignant cells. In a few lines: as §1
Series [5] has as its system human gastric adenocarcinoma cells (SGC7901). As to the kind of experiment: Cytotoxicity, MTT assay, SGC7901. In kind it is cell-based. In a few lines:
as §1

The mark [6] stands for this setting: quotient of the IC50 values towards nonmalignant LO2 cells.

As to `O=C1/C(=C/c2cc(/N=C/c3ccc(O)c(O)c3O)ccc2F)CNC/C1=C\c1cc(/N=C/c2ccc(O)c(O)c2O)ccc1F` [5c], the IC50 (as a rule, the concentration that gives 50% inhibition) in series [1] (Homo sapiens, A549, MTT, 24 hours) was determined as 1400 ± 200 nM; in series [3] (Homo sapiens, HeLa, MTT, 24 hours), 1500 ± 300 nM; in series [4], 15200 ± 600 nM; in series [5] (Homo sapiens, SGC-7901, MTT, 24 hours) it was 1400 ± 100 nM. Also, in series [1] (setting [6]), the “A549 SI” value stood at 10.7. Moreover, in series [2], the body weight change entry is recorded as “no apparent change in body weight”. Moreover, the HepG2 cells apoptosis result in the series with HepG2 cells is given as “dose-dependent apoptosis”. Further, the “HeLa SI” value in series [3] (setting [6]) came out at 9.8. The “expression level of Bax” value with Bax is “up-regulate the expression level of Bax”. For the same molecule, in series [5] (setting [6]), the “SGC7901 SI” value is reported as 11.1.

For the origin of these results see publication PMC6327999, “Hydroxyl-substituted double Schiff-base condensed 4-piperidone/cyclohexanones as potential anticancer agents with biological evaluation” (Journal of Enzyme Inhibition and Medicinal Chemistry, 2019).
